Measurements from PMC11172478, “1,3,5-Triazine as Branching Connector for the Construction of Novel Antimicrobial Peptide Dendrimers: Synthesis and Biological Characterization” (International Journal of Molecular Sciences, 2024).
Residues, ends and D or L forms follow the SMILES beside them. *: point of attachment. βNA = c1ccc2cc(N*)ccc2c1

Columns and labels:
P. aeruginosa 666 SJD = experiment: Intracellular accumulation of acridine orange; type: cell-based; conditions: PaβN 20 µg/mL, AO 0.25 µg/mL, 30 min, fluorescence
Procedure: (§1) The assay was performed as previously described by Armengol et al. including control and clinical strains (E. coli 208691 and P. aeruginosa 666 SJD) previously studied by our group. Briefly, 96-well flat-bottomed microtiter plates (Guangzhou Jet Bio-Filtration Co., Ltd., Mianyang, China) were used. Overnight cultures were diluted in 1/4 Ringer’s solution to an OD520nm of 1.5, and 100 µL was added to the wells previously filled with 100 µL of Ringer’s solution. Acridine Orange (AO) was added to a final concentration of 0.25 µg/mL. The inoculated plates were then incubated for 30 min with shaking, after which the fluorescence was measured in a FLUOstar OPTIMA fluorescence microplate reader (BMG Labtech, Ortenberg, Germany).
(§2) To determine the uptake and accumulation of AO by bacteria, different scenarios were compared. First, bacteria were examined in the presence of PAβN at 20 µg/mL, and then in the presence of different concentrations of the dendrimers at (MIC, ½ MIC, ¼ MIC). The results in each condition were expressed as the percentage increase in fluorescence with respect to the control.

E. coli 208691 = experiment: Intracellular accumulation of acridine orange; type: cell-based; conditions: AO 0.25 µg/mL, 30 min
Procedure: as §1, §2

P. aeruginosa ATCC 27853 [1] = experiment: Intracellular accumulation of acridine orange; type: cell-based
Procedure: as §1, §2

P. aeruginosa ATCC 27853 [2] = experiment: Bacterial growth curves; type: cell-based; conditions: P. aeruginosa ATCC 27853, TSB, MIC, ½ MIC and ¼ MIC, 24 h, 37 °C, OD 850 nm
Procedure: (§3) The real-time effect of the peptide dendrimers was examined on the growth curves of E. coli ATCC 25922 and P. aeruginosa ATCC 27853. Volumes of 10 mL of TSB liquid cultures containing 1–5 × 10^5 CFU/mL in the logarithmic phase were adjusted in Falcon tubes. Peptide dendrimers were then added at MIC and sub-inhibitory concentrations (½ MIC and ¼ MIC). Incubation was performed in RTS-1C real-time reverse spin bioreactors RTS-1 (Biosan) for 24 h at 37 °C and 2000 rpm. Growth was measured noninvasively as optical density (OD 850 nm) every 15 min.

E. coli ATCC 25922 [3] = type: cell-based; conditions: broth microdilution, MHBCA, 24 h, 37 °C, visual turbidity
Procedure: (§4) The antimicrobial activity of the dendrimers was evaluated against E. coli ATCC 25922, P. aeruginosa ATCC 27853 and S. aureus ATCC 29213 strains. The MIC values were determined by the broth microdilution method. Briefly, the different strains were grown in Muller Hinton broth cation adjusted (MHBCA) medium overnight at 37 °C with shaking at 200 rpm. The bacterial cultures were then adjusted to OD625nm of 0.08–0.1, and 5 μL of each diluted suspension was added to 96-well plates previously filled with MHBCA and serially diluted peptides. Plates were incubated for 24 h at 37 °C. Finally, the MIC was determined macroscopically, based on the visual turbidity of the wells.

P. aeruginosa ATCC 27853 [4] = type: cell-based; conditions: broth microdilution, MHBCA, 24 h, 37 °C, visual turbidity
Procedure: as §4

S. aureus ATCC 29213 = type: cell-based; conditions: broth microdilution, MHBCA, 24 h, 37 °C, visual turbidity
Procedure: as §4

E. coli ATCC 25922 [5] = type: cell-based
Procedure: as §3

P. aeruginosa ATCC 27853 [6] = experiment: Time-kill curves; type: cell-based; conditions: P. aeruginosa ATCC 27853, ½ MIC
Procedure: The death kinetics of the active dendrimers were examined by plotting their time-kill curves against E. coli ATCC 25922 and P. aeruginosa ATCC 27853. The dendrimers were added to a starting bacterial inoculum of 10^6 CFU/mL in 5 mL of MHBCA medium. Dendrimers were tested at three different concentrations: MIC, ½ MIC and ¼ MIC. They were incubated for 24 h at 37 °C with shaking at 200 rpm. Samples were aseptically collected at 0, 1, 2, 4 and 6 h, serially diluted in Ringer ¼ and plated on Tryptone soy agar for colony counting.
The response of the microbial strains to the dendrimers was determined based on a logarithmic decrease in viable bacteria. A compound was considered active if it caused a reduction of ≥1 log10 CFU/mL, compared to the corresponding counts at time 0 h. In addition, a dendrimer was considered bactericidal if it caused a reduction of ≥3 log10 CFU/mL [40].

E. coli ATCC 25922 [7] = experiment: Atomic force microscopy of treated bacteria; type: cell-based; conditions: E. coli ATCC 25922, dendrimer at MIC, 4 h, 37 °C
Procedure: E. coli ATCC 25922 was grown at 37 °C in Mueller Hinton cation-adjusted broth to an optical density of 0.25 at 625 nm. Dendrimers were added to a starting inoculum of 10^6 CFU/mL and incubated for 4 h at 37 °C with shaking. Untreated E. coli was included as a control. Cells in 1 mL of culture were centrifuged at 5000 rpm for 5 min and washed three times with 1 mL of sterile water. The bacterial cells were then resuspended in 100 µL of sterile water and a 10 µL drop was applied to a freshly cleaved mica surface and allowed to dry for approximately 10 min at room temperature.
The disk surfaces were analyzed by atomic force microscopy using an AFM XE-70 (Park Systems, Suwon, Korea) in non-contact mode with an ACTA 10M cantilever. […] The AFM images were processed using a scanning probe image processor XEI (Park Systems), correcting the plane of the AFM image for any coupling of the lateral plane and the z-axis caused by the instrument.

[8] = Black lipid bilayers conductance; conditions: DiPhPC/PS 4:1 in n-decane, 1 M KCl, −80, −120 and −180 mV
Procedure: The basic methods have been described previously. Membranes were prepared from 1% lipid a mixture of di-phytanoyl-phosphatidylcholine/di-phytanoylphosphatidylserine (DiPhPC/PS) in a molar ratio of 4:1 in n-decane (Avanti Polar Lipids, Delfzyl, The Netherlands). Bilayers were painted over a 2 mm^2 hole in a Teflon divider separating two compartments containing 5 mL each of a bathing solution of 1MKCl. Voltages were applied across the membrane via calomel electrodes connected by a salt bridge. The resultant current was amplified 10^8-fold by a current amplifier and recorded on a Rikadenski chart recorder. A concentration of 1 μg/mL of the dendrimer was used based on the results of Wu et al..

Molecule | AO accumulation (untreated control = 100%) (P. aeruginosa 666 SJD) [%] | AO accumulation (untreated control = 100%) (E. coli 208691; E. coli 208691, PaβN 20 µg/mL, fluorescence) [%] | changes in AO accumulation by susceptible strains (in words) (P. aeruginosa ATCC 27853 [1]; susceptible strains, PaβN 20 µg/mL) | effect on growth curve (in words) (P. aeruginosa ATCC 27853 [2]) | MIC E. coli ATCC 25922 (E. coli ATCC 25922 [3]) [µg/mL] | MIC P. aeruginosa ATCC 27853 (P. aeruginosa ATCC 27853 [4]) [µg/mL] | MIC S. aureus ATCC 29213 (S. aureus ATCC 29213) [µg/mL] | effect on growth curve (in words) (E. coli ATCC 25922 [5]; E. coli ATCC 25922, TSB, MIC, ½ MIC and ¼ MIC, 24 h, 37 °C, OD 850 nm) | delay in the onset of detectable turbidity (E. coli ATCC 25922 [5]; E. coli ATCC 25922, at concentrations lower than ½ MIC) [h] | prolongation of lag phase (E. coli ATCC 25922 [5]; E. coli ATCC 25922, at ¼ MIC) [h] | concentration that completely inhibited detectable growth (E. coli ATCC 25922 [5]; E. coli ATCC 25922, growth curves, 24 h) [µg/mL] | time-kill activity at ½ MIC (in words) (P. aeruginosa ATCC 27853 [6]) | bacterial surface alteration by AFM (in words) (E. coli ATCC 25922 [7]) | AO accumulation (in words) (E. coli 208691; E. coli 208691, dendrimers at MIC, ½ MIC, ¼ MIC) | AO accumulation (in words) (P. aeruginosa ATCC 27853 [1]; P. aeruginosa ATCC 27853, dendrimers at MIC) | channel formation in planar lipid bilayers (conductance) [8]
NC(N)=NCCC[C@H](NC(=O)[C@@H](N)Cc1ccccc1)C(=O)Nc1ccc2ccccc2c1 [PaβN, reference compound] (H-Phe-Arg-βNA) | ≥ 140 | ≥ 140 | almost negligible |  |  |  |  |  |  |  |  |  |  |  |  | 
H-[(LK)3-EDA]4-(TA-EDA)2-TA-(LK)3-NH2 [Dendrimer 3] |  |  |  | complete growth inhibition occurred at the MIC | 8 | 32 | >64 | inhibited the growth at the MIC and ½ MIC | 10 | 6 | 4 | higher antimicrobial activity than dendrimer 1 | significant surface damages | increase in the AO accumulation with clear differences between the MIC, ½ MIC and ¼ MIC | slight increase in AO accumulation | did not induce membrane channels
